Active and inactive are the calls of the source.
Experiments:
[1] = molecular target: T1, Dual specificity protein phosphatase 3 (Homo sapiens, UniProt P51452); assay: VHR1 phosphatase inhibitors, primary screen, biochemical, absorbance, uHTS (AID 1654)
[2] = molecular target: T2, Voltage-gated N-type calcium channel alpha-1B subunit/Amyloid beta A4 precursor protein-binding family A member 1 (Homo sapiens, UniProt Q00975+Q02410); format: protein assay
[3] = molecular target: T2, Voltage-gated N-type calcium channel alpha-1B subunit/Amyloid beta A4 precursor protein-binding family A member 1; format: protein assay; remark: listed apart in the source
[4] = molecular target: T1, Dual specificity protein phosphatase 3; assay: VHR1 phosphatase inhibitors, biochemical (AID 1878)
[5] = molecular target: T3, Dual specificity protein phosphatase 6 (Rattus norvegicus, UniProt Q64346); assay: inhibition of rat DUSP6 enzyme activity – biochemical, in vitro, primary screen (AID 425)
T3 sequence (Q64346 whole entry): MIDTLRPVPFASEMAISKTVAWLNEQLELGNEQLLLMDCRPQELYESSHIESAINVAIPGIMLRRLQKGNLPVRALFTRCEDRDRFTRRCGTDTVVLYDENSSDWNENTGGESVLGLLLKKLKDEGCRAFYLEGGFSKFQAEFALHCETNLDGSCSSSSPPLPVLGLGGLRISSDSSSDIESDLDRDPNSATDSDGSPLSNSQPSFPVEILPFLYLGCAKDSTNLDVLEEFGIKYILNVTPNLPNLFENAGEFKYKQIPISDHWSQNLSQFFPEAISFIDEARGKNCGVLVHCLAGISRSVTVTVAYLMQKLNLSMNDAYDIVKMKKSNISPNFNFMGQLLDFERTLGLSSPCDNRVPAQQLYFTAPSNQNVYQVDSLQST

Cytochrome P450 1A2 = molecular target: T4, Cytochrome P450 1A2 (Homo sapiens, UniProt P05177);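 note: PubChem cytochrome P450 panel assay, CYP1A2 panel member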
T4 sequence (P05177 whole entry): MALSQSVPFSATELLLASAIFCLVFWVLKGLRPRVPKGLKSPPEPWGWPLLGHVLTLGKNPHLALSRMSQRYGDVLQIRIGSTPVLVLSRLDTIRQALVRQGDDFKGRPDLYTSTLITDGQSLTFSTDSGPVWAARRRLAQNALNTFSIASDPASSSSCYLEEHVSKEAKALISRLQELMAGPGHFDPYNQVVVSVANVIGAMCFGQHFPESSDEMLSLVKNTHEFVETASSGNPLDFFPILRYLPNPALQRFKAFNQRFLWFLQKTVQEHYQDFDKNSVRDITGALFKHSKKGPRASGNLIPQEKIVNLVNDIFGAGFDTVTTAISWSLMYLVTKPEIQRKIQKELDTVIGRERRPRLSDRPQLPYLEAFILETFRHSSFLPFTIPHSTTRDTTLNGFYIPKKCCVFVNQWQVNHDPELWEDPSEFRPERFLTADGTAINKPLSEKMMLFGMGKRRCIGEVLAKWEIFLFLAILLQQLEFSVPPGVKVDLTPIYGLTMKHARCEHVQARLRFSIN

Cytochrome P450 2C9 = Cytochrome P450 2C9 (Homo sapiens, UniProt P11712)
[6] = molecular target: Nucleotide-binding oligomerization domain-containing protein 1 (Homo sapiens, UniProt Q9Y239); assay: SAR analysis of compounds that inhibit NOD1 - Set 3. [Related pubchem assays (depositor defined):AID1566, AID1575, AID1578, AID1849, AID1852, AID2333, AID2335, AID2466]; format: functional
Tumor necrosis factor = Tumor necrosis factor (Homo sapiens, UniProt P01375); assay: analog potency on TNFa NF-kB signaling – cell-based, set 3, SAR follow-up (AID 2801); format: functional
HEK293 = assay: SAR analysis of compounds that are cytotoxic to HEK293 - Set 3. [Related pubchem assays (depositor defined):AID1575, AID1578, AID1848, AID1849, AID2001, AID2333, AID2334, AID2335, AID2337, AID2469]; format: functional, cell-based; conditions: Homo sapiens
[7] = molecular target: Nucleotide-binding oligomerization domain-containing protein 2 (Homo sapiens, UniProt Q9HC29); assay: inhibition of MDP-driven NOD2 NF-kB reporter – cell-based, set 3, SAR follow-up (AID 2799); format: functional
[8] = molecular target: T5, Serine/threonine-protein phosphatase (Candida dubliniensis (strain CD36 / CBS 7987 / NCPF 3949 / NRRLY-17841) (Yeast), UniProt B9W6M3); assay: Fluorescence Cell-Based Secondary Assay to Identify Inhibitors of Calcineurin. [Related pubchem assays (depositor defined):AID1979, AID2007]; format: functional
T5 sequence (B9W6M3 whole entry): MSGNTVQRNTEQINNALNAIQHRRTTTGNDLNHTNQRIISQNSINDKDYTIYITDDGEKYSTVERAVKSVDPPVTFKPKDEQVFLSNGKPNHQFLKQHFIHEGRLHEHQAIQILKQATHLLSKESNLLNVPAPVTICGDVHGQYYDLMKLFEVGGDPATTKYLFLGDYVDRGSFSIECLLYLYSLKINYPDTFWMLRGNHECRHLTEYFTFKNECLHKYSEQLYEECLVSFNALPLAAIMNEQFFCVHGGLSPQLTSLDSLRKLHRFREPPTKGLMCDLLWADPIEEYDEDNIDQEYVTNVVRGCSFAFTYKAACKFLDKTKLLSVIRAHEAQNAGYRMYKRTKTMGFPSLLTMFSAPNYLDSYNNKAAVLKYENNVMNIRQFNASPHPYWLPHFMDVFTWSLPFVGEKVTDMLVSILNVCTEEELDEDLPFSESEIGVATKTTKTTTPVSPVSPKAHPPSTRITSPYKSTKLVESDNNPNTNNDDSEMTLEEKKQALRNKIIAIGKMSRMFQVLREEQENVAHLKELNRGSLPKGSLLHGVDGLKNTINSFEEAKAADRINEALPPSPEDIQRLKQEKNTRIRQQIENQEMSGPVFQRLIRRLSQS

[9] = Luminescence Cell-Based Dose Retest to Confirm Inhibitors of Cancer Stem Cells. [Related pubchem assays (depositor defined):AID2717, AID2721]; format: functional; conditions: Homo sapiens
[10] = viability loss of HMLE_sh_eGFP cells – cell-based, luminescence, counter-screen for HMLE_sh_ECad selective toxicity project, dose response (AID 463074); format: functional, Homo sapiens;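 note: HMLE human mammary epithelial cells expressing control shRNA against eGFP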

T1 sequence (P51452 whole entry): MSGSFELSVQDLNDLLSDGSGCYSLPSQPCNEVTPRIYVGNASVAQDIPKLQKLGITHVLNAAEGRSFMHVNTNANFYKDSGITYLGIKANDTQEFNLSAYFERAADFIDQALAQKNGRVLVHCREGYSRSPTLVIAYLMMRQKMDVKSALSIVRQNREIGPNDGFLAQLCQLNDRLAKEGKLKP
T2 sequence (Q00975 whole entry): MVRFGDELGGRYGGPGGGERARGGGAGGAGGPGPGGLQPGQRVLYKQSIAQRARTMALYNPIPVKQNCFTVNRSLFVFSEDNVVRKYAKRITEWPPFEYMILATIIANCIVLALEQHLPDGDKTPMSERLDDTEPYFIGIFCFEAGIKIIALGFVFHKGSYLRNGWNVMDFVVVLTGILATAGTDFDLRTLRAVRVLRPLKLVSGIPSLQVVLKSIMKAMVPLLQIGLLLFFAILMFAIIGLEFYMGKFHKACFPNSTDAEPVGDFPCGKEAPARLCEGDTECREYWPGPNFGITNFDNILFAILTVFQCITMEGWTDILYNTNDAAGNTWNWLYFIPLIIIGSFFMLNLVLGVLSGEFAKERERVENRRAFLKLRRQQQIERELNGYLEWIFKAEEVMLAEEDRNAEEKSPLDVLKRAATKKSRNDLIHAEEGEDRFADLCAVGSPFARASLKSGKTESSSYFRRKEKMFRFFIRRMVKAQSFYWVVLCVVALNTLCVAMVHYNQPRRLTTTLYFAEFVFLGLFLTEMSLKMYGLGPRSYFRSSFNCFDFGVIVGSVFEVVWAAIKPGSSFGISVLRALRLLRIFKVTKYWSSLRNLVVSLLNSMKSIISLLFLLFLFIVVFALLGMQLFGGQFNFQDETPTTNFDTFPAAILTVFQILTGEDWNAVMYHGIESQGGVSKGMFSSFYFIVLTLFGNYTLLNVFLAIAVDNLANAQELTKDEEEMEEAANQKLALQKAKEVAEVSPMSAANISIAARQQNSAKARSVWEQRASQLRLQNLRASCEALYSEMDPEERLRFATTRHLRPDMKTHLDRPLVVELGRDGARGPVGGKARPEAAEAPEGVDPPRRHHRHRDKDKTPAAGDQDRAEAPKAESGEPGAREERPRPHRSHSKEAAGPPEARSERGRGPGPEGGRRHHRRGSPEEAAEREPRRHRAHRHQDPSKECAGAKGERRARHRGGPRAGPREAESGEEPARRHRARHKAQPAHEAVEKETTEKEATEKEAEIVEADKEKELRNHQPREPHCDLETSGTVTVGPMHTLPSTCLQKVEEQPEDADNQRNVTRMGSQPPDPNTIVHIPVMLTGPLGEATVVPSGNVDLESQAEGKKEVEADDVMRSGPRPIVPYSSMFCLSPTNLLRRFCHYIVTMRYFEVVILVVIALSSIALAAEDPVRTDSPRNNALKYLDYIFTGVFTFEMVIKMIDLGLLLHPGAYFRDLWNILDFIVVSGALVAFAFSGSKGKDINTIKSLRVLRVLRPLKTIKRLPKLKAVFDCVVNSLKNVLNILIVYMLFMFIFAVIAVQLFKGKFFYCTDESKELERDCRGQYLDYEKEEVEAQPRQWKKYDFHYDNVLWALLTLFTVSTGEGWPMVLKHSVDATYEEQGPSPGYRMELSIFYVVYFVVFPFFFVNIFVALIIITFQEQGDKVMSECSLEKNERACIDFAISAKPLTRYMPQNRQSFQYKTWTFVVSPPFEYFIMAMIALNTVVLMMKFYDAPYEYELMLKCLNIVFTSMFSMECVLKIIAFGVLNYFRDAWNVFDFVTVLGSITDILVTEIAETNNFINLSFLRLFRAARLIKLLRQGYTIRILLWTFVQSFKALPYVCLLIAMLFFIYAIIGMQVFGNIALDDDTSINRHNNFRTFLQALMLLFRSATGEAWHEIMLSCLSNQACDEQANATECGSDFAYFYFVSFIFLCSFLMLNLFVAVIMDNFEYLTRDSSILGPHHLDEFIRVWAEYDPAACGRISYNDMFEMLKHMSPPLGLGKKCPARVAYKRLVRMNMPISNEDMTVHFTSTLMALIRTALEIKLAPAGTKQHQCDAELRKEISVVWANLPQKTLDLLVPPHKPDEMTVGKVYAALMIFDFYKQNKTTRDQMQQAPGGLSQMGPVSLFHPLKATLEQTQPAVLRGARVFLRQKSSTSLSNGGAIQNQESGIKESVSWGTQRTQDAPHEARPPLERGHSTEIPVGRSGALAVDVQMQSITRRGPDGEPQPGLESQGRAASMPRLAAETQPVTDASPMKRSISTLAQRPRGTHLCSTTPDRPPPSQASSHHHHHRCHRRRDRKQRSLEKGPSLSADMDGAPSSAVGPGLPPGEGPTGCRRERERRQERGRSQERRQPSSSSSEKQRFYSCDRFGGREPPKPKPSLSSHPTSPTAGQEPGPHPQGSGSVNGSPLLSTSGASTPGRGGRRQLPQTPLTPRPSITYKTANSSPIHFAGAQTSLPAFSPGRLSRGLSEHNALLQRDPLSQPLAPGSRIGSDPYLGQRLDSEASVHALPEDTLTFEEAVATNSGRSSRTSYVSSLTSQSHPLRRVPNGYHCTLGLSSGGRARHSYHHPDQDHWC
T2 sequence (Q02410 whole entry): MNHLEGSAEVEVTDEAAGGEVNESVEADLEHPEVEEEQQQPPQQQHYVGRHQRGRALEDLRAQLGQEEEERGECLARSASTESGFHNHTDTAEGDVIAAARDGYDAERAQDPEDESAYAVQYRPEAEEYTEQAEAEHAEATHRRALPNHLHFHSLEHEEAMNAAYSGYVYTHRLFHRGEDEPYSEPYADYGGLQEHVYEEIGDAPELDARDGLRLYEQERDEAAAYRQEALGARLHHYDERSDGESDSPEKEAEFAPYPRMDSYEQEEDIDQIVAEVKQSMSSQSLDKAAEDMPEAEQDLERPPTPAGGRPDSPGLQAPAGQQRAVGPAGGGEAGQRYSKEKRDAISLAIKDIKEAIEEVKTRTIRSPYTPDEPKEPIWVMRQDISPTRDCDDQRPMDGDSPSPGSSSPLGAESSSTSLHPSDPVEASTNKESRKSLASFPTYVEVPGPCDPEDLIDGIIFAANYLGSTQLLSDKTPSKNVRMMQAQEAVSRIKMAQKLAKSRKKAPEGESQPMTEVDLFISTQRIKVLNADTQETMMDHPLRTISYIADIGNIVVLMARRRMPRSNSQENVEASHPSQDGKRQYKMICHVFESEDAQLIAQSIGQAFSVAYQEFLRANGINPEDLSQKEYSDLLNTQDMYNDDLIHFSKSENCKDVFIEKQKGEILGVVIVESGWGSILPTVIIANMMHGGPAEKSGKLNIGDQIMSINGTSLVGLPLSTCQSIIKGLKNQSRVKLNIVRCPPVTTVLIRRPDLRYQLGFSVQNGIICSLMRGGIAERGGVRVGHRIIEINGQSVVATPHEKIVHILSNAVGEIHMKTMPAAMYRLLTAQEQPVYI
Sequence of Nucleotide-binding oligomerization domain-containing protein 1 (Q9Y239 whole entry, the tested form may be a part): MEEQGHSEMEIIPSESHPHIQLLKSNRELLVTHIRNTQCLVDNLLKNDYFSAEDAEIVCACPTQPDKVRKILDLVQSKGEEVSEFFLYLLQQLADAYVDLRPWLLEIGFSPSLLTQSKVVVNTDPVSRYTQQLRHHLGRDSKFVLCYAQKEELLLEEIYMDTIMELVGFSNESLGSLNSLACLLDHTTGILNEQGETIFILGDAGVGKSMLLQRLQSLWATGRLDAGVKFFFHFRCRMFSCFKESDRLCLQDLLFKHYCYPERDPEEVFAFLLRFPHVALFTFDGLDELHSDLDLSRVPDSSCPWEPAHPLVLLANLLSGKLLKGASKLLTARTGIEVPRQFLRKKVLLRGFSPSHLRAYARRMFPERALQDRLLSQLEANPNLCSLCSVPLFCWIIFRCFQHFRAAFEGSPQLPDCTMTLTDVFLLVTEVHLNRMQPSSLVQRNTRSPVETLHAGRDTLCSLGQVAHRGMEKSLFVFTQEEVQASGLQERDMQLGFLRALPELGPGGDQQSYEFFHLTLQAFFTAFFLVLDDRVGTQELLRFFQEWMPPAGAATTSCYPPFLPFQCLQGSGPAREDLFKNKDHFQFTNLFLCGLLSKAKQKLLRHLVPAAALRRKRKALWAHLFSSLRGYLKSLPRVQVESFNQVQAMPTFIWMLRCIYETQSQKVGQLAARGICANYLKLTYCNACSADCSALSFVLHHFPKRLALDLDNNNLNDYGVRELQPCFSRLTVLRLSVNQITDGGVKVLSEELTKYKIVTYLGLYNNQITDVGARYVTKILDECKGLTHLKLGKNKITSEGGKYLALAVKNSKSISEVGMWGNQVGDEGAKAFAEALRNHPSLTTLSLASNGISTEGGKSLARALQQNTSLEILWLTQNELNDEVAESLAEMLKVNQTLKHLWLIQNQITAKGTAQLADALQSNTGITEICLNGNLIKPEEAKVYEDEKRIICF
Sequence of Cytochrome P450 2C9 (P11712 whole entry, the tested form may be a part): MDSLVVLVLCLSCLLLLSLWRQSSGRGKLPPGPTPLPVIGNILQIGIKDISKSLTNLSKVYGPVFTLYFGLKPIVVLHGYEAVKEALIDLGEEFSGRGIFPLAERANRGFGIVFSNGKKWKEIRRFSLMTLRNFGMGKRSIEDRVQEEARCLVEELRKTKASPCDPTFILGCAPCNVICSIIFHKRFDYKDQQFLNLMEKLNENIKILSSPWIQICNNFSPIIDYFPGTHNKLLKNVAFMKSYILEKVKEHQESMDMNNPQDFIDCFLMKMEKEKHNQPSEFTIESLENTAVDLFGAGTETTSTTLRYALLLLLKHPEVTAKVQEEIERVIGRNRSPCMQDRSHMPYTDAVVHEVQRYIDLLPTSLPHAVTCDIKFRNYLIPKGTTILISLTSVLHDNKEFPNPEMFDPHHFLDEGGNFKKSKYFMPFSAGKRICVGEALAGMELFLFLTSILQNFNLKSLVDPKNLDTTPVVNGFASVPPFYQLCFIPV
Sequence of Tumor necrosis factor (P01375 whole entry): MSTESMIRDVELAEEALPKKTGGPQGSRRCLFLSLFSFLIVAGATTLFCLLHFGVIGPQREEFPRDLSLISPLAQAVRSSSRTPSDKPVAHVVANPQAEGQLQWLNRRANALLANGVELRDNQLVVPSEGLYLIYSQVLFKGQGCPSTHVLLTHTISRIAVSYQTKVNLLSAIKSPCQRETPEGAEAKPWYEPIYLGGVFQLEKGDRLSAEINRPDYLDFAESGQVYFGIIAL

CCOC(=O)C1=C(C)N=c2s/c(=C/c3ccc(OCC(=O)O)cc3)c(=O)n2C1c1ccc(SC)cc1 (centres undefined)
IC50 [1]: 9.18 µM (active)
IC50 [2]: 10.4 µM (active)
IC50 [3]: > 50 µM (inactive)
IC50 [4]: 6.94 µM (active)
IC50 [5]: 72.6 µM (active)

C=C[C@H]1C[N@@]2CC[C@H]1C[C@@H]2[C@@H](O)c1ccnc2ccc(OC)cc12 [QUINIDINE]
AC50 (Cytochrome P450 1A2): inactive
AC50 (Cytochrome P450 2C9): inactive

Nc1nc2ccccc2n1S(=O)(=O)c1ccc(C(F)(F)F)cc1
IC50 [6]: 0.955 µM (active)
IC50 (Tumor necrosis factor): > 20 µM (inactive)
IC50 (HEK293): > 20 µM (inactive)
IC50 [7]: > 20 µM (inactive)

CCOC(=O)N1C(=O)C2(CCCCC2)N(c2ccc(C)cc2)C1=S
EC50 [8]: > 285 µM (inactive)

COc1cc(NC(=O)c2cc(C)on2)cc(C(=O)Nc2cccc(C(F)(F)F)c2)c1
AC50 [9]: 11.6 µM (active)
AC50 [10]: 24.2 µM (active)

Source: ChEMBL document CHEMBL1201862, “PubChem BioAssay data set” (2004)
